In patent US10899738B2 (THE REGENTS OF THE UNIVERSITY OF MICHIGAN, priority 2016, dated 2021):

Biological target: menin protein (Homo sapiens (Human), UniProt O00255)
Assay: biochemical
Format: binding
Details: FP competitive binding, menin protein 4 nM, FAM-MM2 probe 2 nM; for IC50: read-out: Menin Binding Affinity IC50
Summary of the method: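 Test compounds displaced FAM-MM2 (2 nM) from 4 nM menin after 30 min equilibration at room temperature in PBS buffer containing bovine γ-globulin, 4% DMSO and Triton X-100. Binding was followed by fluorescence polarization. Competition curves were fitted by nonlinear regression to give IC50 and Ki.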

menin protein, sequence (O00255 whole entry): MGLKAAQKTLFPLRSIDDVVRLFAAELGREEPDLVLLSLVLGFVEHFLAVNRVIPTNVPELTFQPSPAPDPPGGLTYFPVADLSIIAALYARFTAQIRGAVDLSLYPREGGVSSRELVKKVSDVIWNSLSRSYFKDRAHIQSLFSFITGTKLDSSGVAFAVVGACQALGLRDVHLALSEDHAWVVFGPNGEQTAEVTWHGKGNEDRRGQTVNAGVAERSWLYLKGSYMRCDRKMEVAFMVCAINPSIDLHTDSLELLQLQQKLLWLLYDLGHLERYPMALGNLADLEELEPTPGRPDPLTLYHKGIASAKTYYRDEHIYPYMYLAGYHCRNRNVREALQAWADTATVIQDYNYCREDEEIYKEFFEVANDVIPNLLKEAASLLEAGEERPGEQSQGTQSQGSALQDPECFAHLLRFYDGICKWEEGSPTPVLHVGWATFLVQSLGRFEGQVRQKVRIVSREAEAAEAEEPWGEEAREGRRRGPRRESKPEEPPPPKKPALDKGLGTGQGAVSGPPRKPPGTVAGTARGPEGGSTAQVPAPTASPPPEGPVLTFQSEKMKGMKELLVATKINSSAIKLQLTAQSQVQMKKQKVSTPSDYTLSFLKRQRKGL

SMILES | IC50 [µM] | Menin Binding Affinity IC50 (μM)
O=S(=O)(c1ccncc1)c1ccc(N2CC(CN3CCC(C4(C5CCCC5)CN(CCN5CCOCC5)Cc5ccccc54)CC3)C2)cc1 (stereo not shown) [compound 54, 4-(2-(4-cyclopentyl-4-(1-((1-(4-(pyridin-4-ylsulfonyl)phenyl)azetidin-3-yl)methyl)piperidin-4-yl)-3,4-dihydroisoquinolin-2(1H)-yl)ethyl)morpholine] | 0.011 | –
N#Cc1ccc(N2CCC(N3CCC(C4(C5CCCC5)NCCc5ccccc54)CC3)CC2)cc1 (stereo not shown) [compound 55, 4-(4-(1-cyclopentyl-1,2,3,4-tetrahydroisoquinolin-1-yl)-[1,4′-bipiperidin]-1′-yl)benzonitrile] | 0.669 | –
FCC1(CF)CC(N2CCC(C3(C4CCCC4)NCCc4ccccc43)CC2)C1 (stereo not shown) [compound 56, 1-(1-(3,3-bis(fluoromethyl)cyclobutyl)piperidin-4-yl)-1-cyclopentyl-1,2,3,4-tetrahydroisoquinoline] | 18.2 | –
c1ccc(CN2CC(C3(C4CCCC4)NCCc4ccccc43)C2)cc1 (stereo not shown) [compound 57, 1-(1-benzylazetidin-3-yl)-1-cyclopentyl-1,2,3,4-tetrahydroisoquinoline] | – | No inhibition
N#Cc1ccc(NCCCN2CCC(C3(C4CCCC4)NCCc4ccccc43)CC2)cc1 (stereo not shown) [compound 58, 4-((3-(4-(1-cyclopentyl-1,2,3,4-tetrahydroisoquinolin-1-yl)piperidin-1-yl)propyl)amino)benzonitrile] | 0.241 | –
N#Cc1ccc(NCCCN2CCC(C3(C4CCCC4)NCCc4ccccc43)CC2)cn1 (stereo not shown) [compound 59, 5-((3-(4-(1-cyclopentyl-1,2,3,4-tetrahydroisoquinolin-1-yl)piperidin-1-yl)propyl)amino)picolinonitrile] | 2.3 | –
N#Cc1ccc(OCCCN2CC(C3(C4CCCC4)NCCc4ccccc43)C2)cc1 (stereo not shown) [compound 60, 4-(3-(3-(1-cyclopentyl-1,2,3,4-tetrahydroisoquinolin-1-yl)azetidin-1-yl)propoxy)benzonitrile] | – | No inhibition
N#Cc1ccc(OCCCN2CC(C3(C4CCCC4)c4ccccc4CCN3CCCOc3ccc(C#N)cc3)C2)cc1 (stereo not shown) [compound 61] | – | No inhibition
N#Cc1ccc(OCCCCN2CC(C3(C4CCCC4)NCCc4ccccc43)C2)cc1 (stereo not shown) [compound 62, 4-(4-(3-(1-cyclopentyl-1,2,3,4-tetrahydroisoquinolin-1-yl)azetidin-1-yl)butoxy)benzonitrile] | 36.2 | –
CN1CCc2ccccc2C1(C1CCCC1)C1CN(CCCCCOc2ccc(C#N)cc2)C1 (stereo not shown) [compound 63, 4-((5-(3-(1-cyclopentyl-2-methyl-1,2,3,4-tetrahydroisoquinolin-1-yl)azetidin-1-yl)pentyl)oxy)benzonitrile] | 6 | –
CN1Cc2ccccc2C(C2CCCC2)(C2CCN(CC3CN(c4ccc(S(C)(=O)=O)cc4)C3)CC2)C1 (stereo not shown) [compound 64, 4-cyclopentyl-2-methyl-4-(1-((1-(4-(methylsulfonyl)phenyl)azetidin-3-yl)methyl)piperidin-4-yl)-1,2,3,4-tetrahydroisoquinoline] | 0.061 | –
CCCCC(=O)c1cc2cc(CCN3CCC(C4(C5CCCC5)NCCc5ccccc54)CC3)ccc2n1C (stereo not shown) [compound 65, 1-(5-(2-(4-(1-cyclopentyl-1,2,3,4-tetrahydroisoquinolin-1-yl)piperidin-1-yl)ethyl)-1-methyl-1H-indol-2-yl)pentan-1-one] | 2.8 | –
N#Cc1cc2cc(CCN3CCC(C4(C5CCCC5)NCCc5ccccc54)CC3)ccc2[nH]1 (stereo not shown) [compound 66, 5-(2-(4-(1-cyclopentyl-1,2,3,4-tetrahydroisoquinolin-1-yl)piperidin-1-yl)ethyl)-1H-indole-2-carbonitrile] | 1.1 | –
N#Cc1ccc2[nH]c(CCN3CCC(C4(C5CCCC5)NCCc5ccccc54)CC3)cc2c1 (stereo not shown) [compound 67, 2-(2-(4-(1-cyclopentyl-1,2,3,4-tetrahydroisoquinolin-1-yl)piperidin-1-yl)ethyl)-1H-indole-5-carbonitrile] | 1.2 | –
CN1Cc2ccccc2C(C2CCCC2)(C2CCN(CCCOc3ccc(S(C)(=O)=O)cc3)CC2)C1 (stereo not shown) [compound 68, 4-cyclopentyl-2-methyl-4-(1-(3-(4-(methylsulfonyl)phenoxy)propyl)piperidin-4-yl)-1,2,3,4-tetrahydroisoquinoline] | 0.181 | –
CCS(=O)(=O)c1ccc(N2CC(CN3CCC(C4(C5CCCC5)CN(C)Cc5ccccc54)CC3)C2)cc1 (stereo not shown) [compound 69, 4-cyclopentyl-4-(1-((1-(4-(ethylsulfonyl)phenyl)azetidin-3-yl)methyl)piperidin-4-yl)-2-methyl-1,2,3,4-tetrahydroisoquinoline] | 0.03 | –
c1ccc2c(c1)CCNC2(C1CCCC1)C1CCNCC1 (stereo not shown) [compound 72, 1-cyclopentyl-1-(piperidin-4-yl)-1,2,3,4-tetrahydroisoquinoline] | 610 | –

SMILES | IC50 [µM] | Menin Binding Affinity IC50 (μM)
COCCCN1CCC(C2(C3CCCC3)NCCc3ccccc32)CC1 (stereo not shown) [compound 73, 1-cyclopentyl-1-(1-(3-methoxypropyl)piperidin-4-yl)-1,2,3,4-tetrahydroisoquinoline] | 9.9 | –
O=C(CN1CCC(C2(C3CCCC3)NCCc3ccccc32)CC1)N1CCCC1 (stereo not shown) [compound 74, 2-(4-(1-cyclopentyl-1,2,3,4-tetrahydroisoquinolin-1-yl)piperidin-1-yl)-1-(pyrrolidin-1-yl)ethan-1-one] | 3.1 | –
CN1CCC(C2(C3CCCC3)NCCc3ccccc32)CC1 (stereo not shown) [compound 75, 1-cyclopentyl-1-(1-methylpiperidin-4-yl)-1,2,3,4-tetrahydroisoquinoline] | 142 | –
c1ccc(OCCCN2CCC(C3(C4CCCC4)NCCc4ccccc43)CC2)cc1 (stereo not shown) [compound 76, 1-cyclopentyl-1-(1-(3-phenoxypropyl)piperidin-4-yl)-1,2,3,4-tetrahydroisoquinoline] | 1.3 | –
N#Cc1ccc(-c2ccc(N3CCC(C4(C5CCCC5)NCCc5ccccc54)CC3)cc2)cc1 (stereo not shown) [compound 77, 4′-(4-(1-cyclopentyl-1,2,3,4-tetrahydroisoquinolin-1-yl)piperidin-1-yl)-[1,1′-biphenyl]-4-carbonitrile] | 2580 | –
c1ccc2c(c1)CCNC2(c1ccncc1)C1CCCC1 (stereo not shown) [compound 78, 1-cyclopentyl-1-(pyridin-4-yl)-1,2,3,4-tetrahydroisoquinoline] | – | No inhibition
N#Cc1ccc(OCCCN2CC=C(C3(C4CCCC4)NCCc4ccccc43)CC2)cc1 (stereo not shown) [compound 79, 4-(3-(4-(1-cyclopentyl-1,2,3,4-tetrahydroisoquinolin-1-yl)-3,6-dihydropyridin-1(2H)-yl)propoxy)benzonitrile] | 0.7 | –
N#Cc1cc2cc(C(=O)N[C@H]3CC[C@H](C4(C5CCCC5)NCCc5ccccc54)CC3)ccc2[nH]1 (stereo partly shown) [compound 80, 2-cyano-N-((1r,4r)-4-(1-cyclopentyl-1,2,3,4-tetrahydroisoquinolin-1-yl)cyclohexyl)-1H-indole-5-carboxamide] | 11.6 | –
N#Cc1cc2ccc(C(=O)N[C@H]3CC[C@H](C4(C5CCCC5)NCCc5ccccc54)CC3)cc2[nH]1 (stereo partly shown) [compound 81, 2-cyano-N-((1r,4r)-4-(1-cyclopentyl-1,2,3,4-tetrahydroisoquinolin-1-yl)cyclohexyl)-1H-indole-6-carboxamide] | 1.9 | –
O=C(CN1CCC(C2(C3CCCC3)NCCc3ccccc32)CC1)N1Cc2ccccc2C1 (stereo not shown) [compound 82, 2-(4-(1-cyclopentyl-1,2,3,4-tetrahydroisoquinolin-1-yl)piperidin-1-yl)-1-(isoindolin-2-yl)ethan-1-one] | 6.2 | –
N#Cc1ccc2c(c1)CCN(C(=O)CN1CCC(C3(C4CCCC4)NCCc4ccccc43)CC1)C2 (stereo not shown) [compound 83, 2-(2-(4-(1-cyclopentyl-1,2,3,4-tetrahydroisoquinolin-1-yl)piperidin-1-yl)acetyl)-1,2,3,4-tetrahydroisoquinoline-6-carbonitrile] | 0.847 | –
O=C(CN1CCC(C2(C3CCCC3)NCCc3ccccc32)CC1)N1CCc2ccccc2C1 (stereo not shown) [compound 84, 2-(4-(1-cyclopentyl-1,2,3,4-tetrahydroisoquinolin-1-yl)piperidin-1-yl)-1-(3,4-dihydroisoquinolin-2(1H)-yl)ethan-1-one] | 8.2 | –
CC(C)(C)S(=O)(=O)c1ccc(N2CC(CN3CCC(C4(C5CCCC5)NCCc5ccccc54)CC3)C2)cc1 (stereo not shown) [compound 87, 1-(1-((1-(4-(tert-butylsulfonyl)phenyl)azetidin-3-yl)methyl)piperidin-4-yl)-1-cyclopentyl-1,2,3,4-tetrahydroisoquinoline] | 0.122 | –
CN(C)S(=O)(=O)c1ccc(N2CC(CN3CCC(C4(C5CCCC5)NCCc5ccccc54)CC3)C2)cc1 (stereo not shown) [compound 88, 4-(3-((4-(1-cyclopentyl-1,2,3,4-tetrahydroisoquinolin-1-yl)piperidin-1-yl)methyl)azetidin-1-yl)-N,N-dimethylbenzenesulfonamide] | 0.075 | –
O=S(=O)(c1ccc(O[C@H]2C[C@@H](N3CCC(C4(C5CCCC5)NCCc5ccccc54)CC3)C2)cc1)C1CC1 (stereo partly shown) [compound 89, 1-cyclopentyl-1-(1-((1s,3s)-3-(4-(cyclopropylsulfonyl)phenoxy)cyclobutyl)piperidin-4-yl)-1,2,3,4-tetrahydroisoquinoline] | 13.1 | –
O=S(=O)(c1ccc(OC2CC(N3CCC(C4(C5CCCC5)NCCc5ccccc54)CC3)C2)cc1)C1CC1 (stereo not shown) [compound 90, 1-cyclopentyl-1-(1-((1r,3r)-3-(4-(cyclopropylsulfonyl)phenoxy)cyclobutyl)piperidin-4-yl)-1,2,3,4-tetrahydroisoquinoline] | 2.4 | –
CCN1Cc2ccccc2C(C2CCCC2)(C2CCN(CC3CN(c4ccc(S(=O)(=O)C5CC5)cc4C)C3)CC2)C1 (stereo not shown) [compound 96, 4-cyclopentyl-4-(1-((1-(4-(cyclopropylsulfonyl)-2-methylphenyl)azetidin-3-yl)methyl)piperidin-4-yl)-2-ethyl-1,2,3,4-tetrahydroisoquinoline] | 0.587 | –
